{
  "source": "patent US20020013362A1",
  "about": "(priority 2000, published 2002)",
  "key": {"patients with melanoma [1]": {"test_system": "patients with melanoma"}, "patients with melanoma [2]": {"test_system": "patients with melanoma", "settings": "cited from earlier work"}, "[3]": {"test_system": "adult leukemia, solid tumors, and pediatric solid tumor patients", "test": "Earlier published trials of the Q4D paclitaxel schedule", "type": "in vivo, human", "settings": "one patient with a recurrent large metastatic melanoma", "from_the_text": "An added benefit to this regimen includes a reduction in myelosupression. To this end, we devised the Q4 day (Q4D)×3 every 21-day treatment schedule which has the added value of increasing the dose intensity during each 21-day treatment period beyond that of the once every 21-day schedule (Ainsworth S. K., and Helson, L., U.S. Pat. No. 5,696,153 issued Dec. 9, 1997). […] During these trials an anecdotal twelve-month partial response in a patient with a recurrent large metastatic melanoma was observed. […]"}, "metastatic melanoma": {"test_system": "metastatic melanoma", "test": "Phase II M D Anderson trial of paclitaxel Q4Dx3 every 21 days, tumor responses", "type": "in vivo, human", "from_the_text": "Cytokines and therapeutic agents which may be used include, for example, platinum compounds (e.g., spiroplatin, cisplatin, and carboplatin), thalidomide, methotrexate, adriamycin, mitomycin, ansamitocin, bleomycin, cytosine arabinoside, arabinosyl adenine, mercaptopolylysine, vincristine, busulfan, chlorambucil, melphalan (e.g., PAM, L-PAM or phenylalanine mustard), mercaptopurine, mitotane, carmustine, procarbazine hydrochloride dactinomycin (actinomycin D), daunorubicin hydrochloride, doxorubicin hydrochloride, taxol, mitomycin, plicamycin (mithramycin), aminoglutethimide, estramustine phosphate sodium, flutamide, leuprolide acetate, megestrol acetate, tamoxifen citrate, testolactone, trilostane, amsacrine (m-AMSA), asparaginase (L-asparaginase) Erwina asparaginase, etoposide (VP-16), interferon α-2a, interferon α-2b, teniposide (VM-26), vinblastine sulfate (VLB), vincristine sulfate, bleomycin, bleomycin sulfate, methotrexate, adriamycin, and arabinosyl; biological response modifiers such as muramyldipeptide, muramyltripeptide, microbial cell wall components, lymphokines (e.g., bacterial endotoxin such as lipopolysaccharide, macrophage activation factor), sub-units of bacteria (such as Mycobacteria, Corynebacteria), the synthetic dipeptide N-acetyl-muramyl-L-alanyl-D-isoglutamine; hormones such as growth hormone, melanocyte stimulating hormone, estradiol, beclomethasone dipropionate, betamethasone, betamethasone acetate and betamethasone sodium phosphate, vetamethasone disodium phosphate, vetamethasone sodium phosphate, cortisone acetate, dexamethasone, dexamethasone acetate, dexamethasone sodium phosphate, flunisolide, hydrocortisone, hydrocortisone acetate, hydrocortisone cypionate, hydrocortisone sodium phosphate, hydrocortisone sodium succinate, methylprednisolone, methylprednisolone acetate, methylprednisolone sodium succinate, paramethasone acetate, prednisolone, prednisolone acetate, prednisolone sodium phosphate, prednisolone tebutate, prednisone, triamcinolone, triamcinolone acetonide, triamcinolone diacetate, triamcinolone hexacetonide and fludrocortisone acetate; immunoadjuvants and cytokines may also be employed, including interleukins (e.g., IL-1, IL-2, IL-3, IL-6), leukemia inhibitory factor, interferons, such as INF-α, TGF-beta, erythropoietin, TNF, lymphotoxin, and thrombopoietin; thalidomide and/or other agents to inhibit the production and/or action of cytokine/growth factors such as M-α, IGF-1, EGF, TGF α, IL-1β, MGSA and bFGF in different cell types involved in tumor growth and/or angiogenesis of melanoma."}, "[4]": {"settings": "17 patients, 90 mg/M^2 Q4 days x3"}},
  "data": [
    {"smiles": "CC(=O)O[C@H]1C(=O)[C@@]2(C)[C@H]([C@H](OC(=O)c3ccccc3)[C@]3(O)C[C@H](OC(=O)[C@H](O)[C@@H](NC(=O)c4ccccc4)c4ccccc4)C(C)=C1C3(C)C)[C@]1(OC(C)=O)CO[C@@H]1C[C@@H]2O", "note": "[paclitaxel]", "values": [
      {"measurement": "associated toxicity versus 200 mg/M^2 Q 21-day schedule", "setting": "patients with melanoma [1]; 270 mg/M^2 per 21 days, Q4D schedule", "value": "significantly less"},
      {"measurement": "Grade 3 abdominal pain (sufficient to interfere with function)", "setting": "patients with melanoma [1]; [4]", "value": 3, "unit": "patients"},
      {"measurement": "Grade 3 anemia (between 6.5-7.9 grams/100 ml blood)", "setting": "patients with melanoma [1]; [4]", "value": 2, "unit": "patients"},
      {"measurement": "Grade 3 diarrhea (over 7-9 stools/day)", "setting": "patients with melanoma [1]; [4]", "value": 2, "unit": "patients"},
      {"measurement": "Grade 3 edema (>20% weight gain)", "setting": "patients with melanoma [1]; [4]", "value": 1, "unit": "patient"},
      {"measurement": "Grade 3 fatigue (objective weakness with impairment of function)", "setting": "patients with melanoma [1]; [4]", "value": 4, "unit": "patients"},
      {"measurement": "Grade 3 granulocytopenia (between 0.5-0.9x10^3/mm^3)", "setting": "patients with melanoma [1]; [4]", "value": 6, "unit": "patients"},
      {"measurement": "Grade 3 increased alkaline phosphatase levels (between 5.1-20xN)", "setting": "patients with melanoma [1]; [4]", "value": 2, "unit": "patients"},
      {"measurement": "Grade 3 toxicity, number of patients", "setting": "patients with melanoma [1]; [4]", "value": 11, "unit": "patients"},
      {"measurement": "Grade 3 toxicity, number of times", "setting": "patients with melanoma [1]; [4]", "value": 21, "unit": "times"},
      {"measurement": "Grade 4 BUN increase (greater than 10 times normal values)", "setting": "patients with melanoma [1]; [4]", "value": 1, "unit": "patient"},
      {"measurement": "Grade 4 granulocytopenia (less than 0.5x10^3/mm^3)", "setting": "patients with melanoma [1]; [4]", "value": 4, "unit": "patients"},
      {"measurement": "Grade 4 leukopenia (less than 1.0x10^3/mm^3)", "setting": "patients with melanoma [1]; [4]", "value": 2, "unit": "patients"},
      {"measurement": "Grade 4 toxicity, number of patients", "setting": "patients with melanoma [1]; [4]", "value": 3, "unit": "patients"},
      {"measurement": "major side effect", "setting": "patients with melanoma [1]; Patient #2, eight courses at 270 mg/M^2/course", "value": "paresthesia"},
      {"measurement": "partial responses in patients with melanoma", "setting": "patients with melanoma [2]; 24-hour infusion, 250 mg/M^2 once every three weeks (Legha 1990)", "value": "3/25"},
      {"measurement": "paclitaxel dose a majority of the melanoma patients could tolerate", "setting": "patients with melanoma [2]; Legha 1990", "value": "≤ 200", "unit": "mg/M^2"},
      {"measurement": "objective responses", "setting": "patients with melanoma [2]; phase II, same schedule (24-hour infusion 250 mg/M^2 q3 weeks), 28 patients (Einzig 1988)", "value": "five"},
      {"measurement": "maximum tolerated dose intensity under previous regimens", "setting": "patients with melanoma [2]; three 175 mg/M^2 doses given every 21 days (63-day period)", "value": 525, "unit": "mg/M^2"},
      {"measurement": "duration of anecdotal partial response", "setting": "[3]", "value": "twelve"},
      {"measurement": "tumor volume decrease", "setting": "metastatic melanoma; Patient #1, after another two courses (four in all)", "value": 83, "unit": "%"},
      {"measurement": "decrease in liver metastases volume", "setting": "metastatic melanoma; Patient #1, after two courses at 270 mg/M^2/course", "value": 41, "unit": "%"},
      {"measurement": "decrease in lung metastases", "setting": "metastatic melanoma; Patient #2, 270 mg/M^2/course", "value": 43, "unit": "%"},
      {"measurement": "tumor control maintained, number of courses", "setting": "metastatic melanoma; Patient #2, 270 mg/M^2/course", "value": "eight"},
      {"measurement": "decrease in tumor volume", "setting": "metastatic melanoma; Patient #3, scapular primary, after 4 courses at 270 mg/M^2/course", "value": 39, "unit": "%"},
      {"measurement": "decrease in tumor volume", "setting": "metastatic melanoma; Patient #4, right calf primary, after 4 courses at 270 mg/M^2/course", "value": 15, "unit": "%"},
      {"measurement": "decrease in tumor volume", "setting": "metastatic melanoma; Patient #5, right heel mass, after 2 courses at 270 Mg/M^2/course", "value": 12, "unit": "%"},
      {"measurement": "clinical response", "setting": "metastatic melanoma; Patient #6, during 4 courses at 270 mg/M^2/course", "value": "stable disease"},
      {"measurement": "clinical response", "setting": "metastatic melanoma; Patient #7, ciliochoroidal primary, no previous chemotherapy, after 3 courses at 270 mg/M^2/course", "value": "stable disease"},
      {"measurement": "clinical response", "setting": "metastatic melanoma; Patient #8, tumor of dorsum of right foot, previously treated, during two courses at 270 mg/M^2/course", "value": "stable disease"},
      {"measurement": "clinical response", "setting": "metastatic melanoma; Patient #9, non-choroidal melanoma, no prior chemotherapy, during 6 courses at 270 mg/M^2/course", "value": "stable disease"},
      {"measurement": "objective responses, tumor reduction", "setting": "metastatic melanoma; interim analysis, first 21 patients, 90 mg/M^2/dose Q4D, advanced heavily pretreated melanoma", "value": "greater than 50%"},
      {"measurement": "reductions in hepatic tumor masses", "setting": "metastatic melanoma; interim analysis, sustained over one month, additional two patients of first 21, 90 mg/M^2/dose Q4D", "value": "25-40%"}
    ]}
  ]
}
